In brackets after ≈: the same amount, converted by molar mass. Read-outs that look alike come from different tables or passages of the source.
Columns and labels:
[1] = MTT-based viability assay; assay type: cell-based; details: human, 72 h
Method in brief: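 MRC-5 human fibroblasts grown in MEME with 10% FBS at 37 °C, 5% CO2, tested by MTT with absorbance read at 570 nm. Viability given as percent of untreated control cells, in triplicate.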

[2] = test system: K. pneumoniae ATCC 700603 ESBL-positive; assay: combination disc test CDT-ESBL; assay type: cell-based; details: Klebsiella pneumoniae
C. krusei ATCC 6258 = assay: antifungal activity (disc-diffusion, MIC, MFC); assay type: cell-based, Candida krusei; details: Pichia kudriavzevii, ATCC6258; for zone of inhibition at 0.4 mg/disc: 0.4 mg per disc, 9 mm disc (fluconazole 0.025 mg, 6 mm disc), - no zone, read-out: Diameter of inhibition zone; for MIC: fluconazole by Etest
Method in brief: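 EUCAST/CLSI methods: disc diffusion at 0.4 mg compound/disc, broth MIC, then MBC (bacteria) or MFC (yeast). DMSO vehicle.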

[3] = test system: K. pneumoniae 81 KPC-3-positive; assay: checkerboard microdilution, antibiotic plus tested agent; assay type: cell-based, Klebsiella pneumoniae
Method in brief: (§1)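 Read-out is the antibiotic MIC with agent present, plus FICI = combined/alone MIC ratios summed for both partners. Meropenem pairs served for carbapenemase strains and ceftazidime pairs for the AmpC strain. Agent or PBA was tested at 4–16 mg/L.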

[4] = test system: K. pneumoniae ATCC BAA-1705 KPC-2-positive; assay: as above; assay type: cell-based, Klebsiella pneumoniae
Method in brief: as §1

[5] = test system: K. pneumoniae 83 KPC-3-positive, CTX-M-3-positive; assay: as above; assay type: cell-based, Klebsiella pneumoniae
Method in brief: as §1

[6] = test system: E. coli 76 KPC-2-positive; assay: as above; assay type: cell-based, Escherichia coli
Method in brief: as §1

[7] = test system: E. coli 77 CMY-2-positive; assay: as above; assay type: cell-based, Escherichia coli
Method in brief: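 β-lactam 1–64 mg/L × agent/PBA 4–16 mg/L checkerboard; meropenem vs carbapenemase producers, ceftazidime vs AmpC producer; imipenem, ertapenem added for selected agents. Readout: combination MICs, FICI (average and lowest); off-scale MICs taken as next doubling.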

[8] = MRC-5 human fibroblasts, read-out: Viability of MRC-5 cells (% of viable cells ± SD)
[9] = ATCC700603, agent 0.3 mg per disc, read-out: Diameter of inhibition zone, CAZ-30 disc with agent
[10] = read-out: Viability of MRC-5 cells (% of viable cells ± SD)

| SMILES | viability at 72 h, 12.5 mg/L [1, 8] | viability at 72 h, 25 mg/L [1, 8] | viability at 72 h, 50 mg/L [1, 8] | zone of inhibition at 300 µg/disc [2, 9] | MIC (C. krusei ATCC 6258) | Average FICI with ERT [3] | Average FICI with IMI [3] | Average FICI with MEM [3] | The lowest FICI with ERT [3] | The lowest FICI with IMI [3] | The lowest FICI with MEM [3] | Average FICI with ERT [4] | Average FICI with IMI [4] | Average FICI with MEM [4] | The lowest FICI with ERT [4] | The lowest FICI with IMI [4] | The lowest FICI with MEM [4] | Average FICI with ERT [5] | Average FICI with ceftazidime [7] | The lowest FICI with ceftazidime [7] | also measured |
| --- | --- | --- | --- | --- | --- | --- | --- | --- | --- | --- | --- | --- | --- | --- | --- | --- | --- | --- | --- | --- | --- |
| OB(O)c1ccc(C(F)(F)F)cc1B(O)O [3e] | 98.8 ± 25.6% | 92.9 ± 2.7% | 64.4 ± 0.4% | 14 mm | 25 µg/mL (≈ 107 µM) | – | – | – | – | – | – | – | – | – | – | – | – | – | – | – | zone of inhibition at 0.4 mg/disc (C. krusei ATCC 6258): 23 mm |
| OB(O)c1ccc(F)cc1B(O)O [3c] | 97.1 ± 6.9% | 106 ± 4.5% | 82.3 ± 12.9% | 16 mm | 200 µg/mL (≈ 1090 µM) | 0.22 | 0.18 | 0.18 | 0.15 | 0.14 | 0.14 | 0.43 | 0.35 | 0.51 | 0.27 | 0.26 | 0.51 | 0.43 | – | – | Average FICI with IMI [5]: 0.35; Average FICI with MEM [5]: 0.22; The lowest FICI with ERT [5]: 0.27; The lowest FICI with IMI [5]: 0.26; The lowest FICI with MEM [5]: 0.15; Average FICI with ERT [6]: 0.43; Average FICI with IMI [6]: 0.22; Average FICI with MEM [6]: 0.43; The lowest FICI with ERT [6]: 0.27; The lowest FICI with IMI [6]: 0.15; The lowest FICI with MEM [6]: 0.27 |
| OB(O)c1cccc(B(O)O)c1 [2a] | 94.4 ± 2.2% | 75.2 ± 10.3% | 73.1 ± 13.6% | 16 mm | > 400 µg/mL | – | – | – | – | – | – | – | – | – | – | – | – | – | 0.22 | 0.15 | – |
| OB(O)c1ccc(B(O)O)cc1 [1a] | – | – | – | 17 mm | > 400 µg/mL | 0.20 | 0.22 | 0.24 | 0.08 | 0.15 | 0.08 | 0.43 | 0.43 | 0.30 | 0.27 | 0.27 | 0.15 | 0.35 | 0.30 | 0.15 | Average FICI with IMI [5]: 0.35; Average FICI with MEM [5]: 0.39; The lowest FICI with ERT [5]: 0.26; The lowest FICI with IMI [5]: 0.26; The lowest FICI with MEM [5]: 0.15; viability at 72 h, 16 mg/L ([1]; MRC-5 human fibroblasts, 16 mg/L, read-out: Viability of MRC-5 cells (% of viable cells ± SD)): 113 ± 12.5%; viability at 72 h, 32 mg/L ([1]; MRC-5 human fibroblasts, 32 mg/L, read-out: Viability of MRC-5 cells (% of viable cells ± SD)): 103 ± 11.8%; viability at 72 h, 64 mg/L ([1]; MRC-5 human fibroblasts, 64 mg/L, read-out: Viability of MRC-5 cells (% of viable cells ± SD)): 89.9 ± 11.4%; Average FICI with ERT [6]: 0.22; Average FICI with IMI [6]: 0.30; Average FICI with MEM [6]: 0.31; The lowest FICI with ERT [6]: 0.15; The lowest FICI with IMI [6]: 0.15; The lowest FICI with MEM [6]: 0.15 |
| OB(O)c1ccsc1B(O)O [5a, thiophene-2,3-diboronic acid] | 88.6 ± 9.2% | 87.1 ± 1.6% | 79.2 ± 5.1% | 16 mm | > 400 µg/mL | – | – | – | – | – | – | – | – | – | – | – | – | – | 0.43 | 0.27 | – |
| OB(O)c1cccc(F)c1B(O)O [3b] | 98.1 ± 6.1% | 91.2 ± 13.5% | 87.1 ± 8% | 16 mm | 100 µg/mL (≈ 544 µM) | – | – | – | – | – | – | – | – | – | – | – | – | – | 0.43 | 0.27 | – |
| OB(O)c1cc(C(F)(F)F)cc(B(O)O)c1F [2e] | 96.6 ± 6.4% | 84.4 ± 4.8% | 63.1 ± 1.4% | 16 mm | > 400 µg/mL | – | – | – | – | – | – | – | – | – | – | – | – | – | – | – | – |
| OB(O)c1ccccc1 [PBA, phenylboronic acid, reference compound] | – | – | – | – | – | 0.51 | 0.43 | 0.51 | 0.51 | 0.27 | 0.51 | 0.85 | 0.43 | 0.43 | 0.52 | 0.27 | 0.27 | 0.51 | 0.30 | 0.15 | Average FICI with IMI [5]: 0.68; Average FICI with MEM [5]: 0.35; The lowest FICI with ERT [5]: 0.51; The lowest FICI with IMI [5]: 0.51; The lowest FICI with MEM [5]: 0.26; viability at 72 h, 12.5 mg/L [1, 10]: 81.5 ± 3.7%; viability at 72 h, 25 mg/L [1, 10]: 79.1 ± 4.4%; viability at 72 h, 50 mg/L [1, 10]: 58.7 ± 4.3%; zone of inhibition at 300 µg/disc ([2]; ATCC700603, read-out: Diameter of inhibition zone, CAZ-30 disc with agent): 14 mm; Average FICI with ERT [6]: 0.35; Average FICI with IMI [6]: 0.22; Average FICI with MEM [6]: 0.26; The lowest FICI with ERT [6]: 0.26; The lowest FICI with IMI [6]: 0.15; The lowest FICI with MEM [6]: 0.26 |
| OB(O)c1ccccc1S [7c, 2-mercaptophenylboronic acid] | 56.4 ± 3% | 6.6 ± 5.1% | 0% | 15 mm | 50 µg/mL (≈ 325 µM) | – | – | – | – | – | – | – | – | – | – | – | – | – | – | – | viability at 72 h ([1]; MRC-5 human fibroblasts, 12.5, 25 and 50 mg/L): 0 to 56.4%; zone of inhibition at 0.4 mg/disc (C. krusei ATCC 6258): 16 mm |
| OB(O)c1ccc(B(O)O)c(B(O)O)c1 [4b, benzene-1,2,4-triboronic] | 114 ± 1.8% | 106.4 ± 0.1% | 97.3 ± 13.6% | 14 mm | > 400 µg/mL | – | – | – | – | – | – | – | – | – | – | – | – | – | 0.43 | 0.27 | – |

Source: article PMC10648349, “Aromatic Diboronic Acids as Effective KPC/AmpC Inhibitors” (Molecules, 2023)
